From patent US20210236529A1, “MULTI-TARGETED COMPOSITIONS FOR MITIGATING ACUTE RESPIRATORY DISTRESS SYNDROME” (priority 2020, published 2021)

Key:
[1] = tested on: IL-6; experiment: IL-6 in conditioned medium of 3D ciliated airway tissues, sandwich ELISA; assay type: cell-based, human; conditions: LPS 1 μg/ml, 72 h total contact
Description: (§1) A second study was undertaken to assess the ability of the select hydrolysable tannins to inhibit select pro-inflammatory interleukins, namely IL-6 and IL-8. The study was conducted using reconstituted human ciliated airway tissue. Specifically, Ninety Six 3D ciliated airway tissues (cat. #34839) were obtained from Mattek (Ashland, Mass.) and were cultured in Assay Media (cat. #031921JRD, MatTek). The tissue samples were rinsed twice before incubation with the MTT reagents. The test materials themselves were solubilized and diluted in sterile distilled water and added to the feeder chamber medium contacting the basal side of the tissues on Day 1. The test material was also applied topically on Day 2 together with LPS (added where indicated at 1 μg/ml, from Escherichia coli 0113, Cayman Chemical Company, Ann Arbor, Mich.) for total contact time of 72 h. The experiments were tested in triplicates or duplicates.
(§2) Following the exposures to the test materials, 1L-6 and IL-8 were quantified in the tissue culture—conditioned medium by sandwich ELISA (Table 4A and 4B). The effect of the test materials on mitochondrial metabolism was measured by the MTT assay, which quantifies the activity of mitochondrial dehydrogenases, such as succinate dehydrogenase, implicated in the respiratory electron transport chain in mitochondria. The MTT conversion values were also used to standardize the IL-6, IL-8 output data to tissue viability.

[2] = tested on: IL-8; experiment: IL-8 in conditioned medium of 3D ciliated airway tissues, sandwich ELISA; assay type: cell-based, human; conditions: LPS 1 μg/ml, 72 h total contact
Description: as §1, §2

[3] = biological target: SARS-CoV-2 RNA Polymerase (RdRp) (Severe acute respiratory syndrome coronavirus 2, UniProt P0DTD1); experiment: SARS-CoV-2 RNA Polymerase (RdRp) Assay Kit, fluorescent enzymatic activity in vitro; assay type: biochemical; conditions: for RdRp activity, % of Control: vs water control; for inhibition of SARS-CoV-2 RNA replication (in words): summary of Tables 1 and 2
[4] = tested on: Covid-19 patients; conditions: after treatment; preliminary findings, 21 patients; cited from earlier work
[5] = 10 μgm/ml, standardized to MTT viability
[6] = 10 μg/ml, standardized to MTT viability
[7] = 100 μg test material (0.209-0.213 μM)

Row | Compound | IL-6, % of Control [1, 5] | IL-6, % of Control ([1]; 50 μgm/ml) | IL-6, % of Control ([1]; 200 μgm/ml) | IL-8, % of Control [2, 6] | IL-8, % of Control ([2]; 50 μg/ml) | IL-8, % of Control ([2]; 200 μg/ml) | RdRp activity, % of Control ([3]; 10 μg test material) | RdRp activity, % of Control ([3]; 50 μg test material) | RdRp activity, % of Control [3, 7] | inhibition of SARS-CoV-2 RNA replication (in words) [3] | IL-6, % of Control ([1]; 100 μgm/ml) | IL-8, % of Control ([2]; 100 μg/ml) | IL-6, % of Control ([1]; 10 μM) | IL-6, % of Control ([1]; 50 μM) | IL-8, % of Control ([2]; 10 μM) | IL-8, % of Control ([2]; 50 μM) | EC50 [3] [µM] | RdRp activity, % of Control ([3]; 10 μM) | RdRp activity, % of Control ([3]; 50 μM) | patients experiencing a reduced need for supplemental oxygen [4] [%]
1 | O=C(O)C[C@@H]1C(=O)O[C@H]2[C@@H]3OC(=O)c4cc(O)c(O)c(O)c4-c4c(cc(O)c(O)c4O)C(=O)OC[C@H]2O[C@@H](OC(=O)c2cc(O)c(O)c(O)c2)[C@@H]3OC(=O)c2cc(O)c(O)c3c2[C@H]1[C@H](O)C(=O)O3 [Chebulagic acid] | 70 % of Control | 40 % of Control | 5 % of Control | 112 % of Control | 100 % of Control | 66 % of Control | 35 % of Control | 10 % of Control | 8 % of Control | marked inhibition |  |  |  |  |  |  |  |  |  | 
2 | O=C(O)C[C@H](C(=O)O)[C@H]1c2c(cc(O)c(O)c2O)C(=O)O[C@@H]1C(=O)O [Chebulic acid, reference compound] | 68 % of Control | 106 % of Control |  | 96 % of Control | 108 % of Control |  | 105 % of Control | 96 % of Control |  | neither Lopinavir, a commercial inhibitor of viral RNA replication, nor chebulic acid manifested effective inhibition | 78 % of Control | 111 % of Control |  |  |  |  |  |  |  | 
3 | O=C(O)C[C@H]1C(=O)O[C@H]2[C@H](OC(=O)c3cc(O)c(O)c(O)c3)[C@@H](OC(=O)c3cc(O)c(O)c4c3[C@H]1[C@H](O)C(=O)O4)[C@H](OC(=O)c1cc(O)c(O)c(O)c1)O[C@@H]2COC(=O)c1cc(O)c(O)c(O)c1 [Chebulinic acid] | 131 % of Control | 96 % of Control | 18 % of Control | 114 % of Control | 109 % of Control | 101 % of Control | 25 % of Control | 14 % of Control | 7 % of Control | marked inhibition |  |  |  |  |  |  |  |  |  | 
4 | Cc1cccc(C)c1OCC(=O)N[C@@H](Cc1ccccc1)[C@@H](O)C[C@H](Cc1ccccc1)NC(=O)[C@H](C(C)C)N1CCCNC1=O [Lopinavir, reference compound] |  |  |  |  |  |  |  |  |  | neither Lopinavir, a commercial inhibitor of viral RNA replication, nor chebulic acid manifested effective inhibition |  |  | 73 % of Control | 81 % of Control | 103 % of Control | 104 % of Control | > 50 | 91 % of Control | 80 % of Control | 
5 | O=C(OC[C@H]1O[C@@H](OC(=O)c2cc(O)c(O)c(O)c2)[C@H](OC(=O)c2cc(O)c(O)c(O)c2)[C@@H](OC(=O)c2cc(O)c(O)c(O)c2)[C@@H]1OC(=O)c1cc(O)c(O)c(O)c1)c1cc(O)c(O)c(O)c1 [Pentagallolyl glucose, Pentagalloyl glucose] | 91 % of Control | 64 % of Control | 0 % of Control | 100 % of Control | 104 % of Control | 0 % of Control | 32 % of Control | 12 % of Control | 4 % of Control | marked inhibition |  |  |  |  |  |  |  |  |  | 
6 | Actemra: a humanized anti-IL-6R monoclonal antibody |  |  |  |  |  |  |  |  |  |  |  |  |  |  |  |  |  |  |  | 75
